Experimental data reported in publication PMC11141368, “Antioxidant, antibacterial, enzyme inhibition and fluorescence characteristics of unsymmetrical thiourea derivatives” (Heliyon, 2024).

How the values were obtained:
S. typhi = experiment: Antibacterial agar well diffusion; type: cell-based, Salmonella typhi (ATCC0650); conditions: Salmonella enterica, TYPHI, 24 h, 6.25 mg/mL per well, 37 °C
Source text: (§1) The antibacterial assay was done for all compounds (1–6) as described in previous studies. The mean number of viable organisms per milliliter of stock suspensions containing Escherichia coli (ATCC25922), Pseudomonas aeruginosa (ATCC27853), Salmonella typhi (ATCC0650), and Staphylococcus aureus (NCTC25953) was uncovered using the surface viable counting method. Preparations of suspensions containing approximately 108–109 colony forming units (CFU) per milliliter were made. Aseptic nutritional agar was formulated and transferred onto petri dishes. Cultures of bacteria were uniformly distributed on agar surface using sterile brush sticks. Five wells, each with a diameter of 6 mm, were made in each plate using a sterile borer. Afterwards, a concentration of 6.25 mg/mL of each component was applied to separate wells. Cephradine, a readily accessible antibiotic, was employed as a reference standard at an equivalent concentration. Following sealing, the agar dishes were incubated at a controlled temperature of 37 °C for a period of 24 h. The zone of inhibition in the plates was determined, which represents the inhibition of bacterial growth. Each sample zone of inhibition diameter was evaluated, and the antibacterial effectiveness of each drug was quantified according to the mean diameter of the inhibition zone (in millimetres).

P. aeruginosa = experiment: Antibacterial agar well diffusion; type: cell-based, Pseudomonas aeruginosa (ATCC27853); conditions: Pseudomonas aeruginosa, 24 h, 6.25 mg/mL per well, 37 °C
Source text: as §1

[1] = target: T1, acetylcholinesterase (AChE) (Electrophorus electricus, UniProt O42275); experiment: biochemical; conditions: for inhibition at 62.5 µg/mL / inhibition at 125 µg/mL / inhibition at 250 µg/mL / inhibition at 500 µg/mL / inhibition at 1000 µg/mL: read-out: AChE Percent inhibition
T1 construct: The AChE was derived from the electric eel, while BChE was obtained from equineserum; from tissue; host or cells: electric eel (tissue not specified)
Method: (§2) This assay employed two enzymes, namely acetylcholinesterase (AChE) and butyryl cholinesterase (BChE). The AChE was derived from the electric eel, while BChE was obtained from equineserum. The synthesized compounds were dissolved in phosphate buffer (0.1 M, pH 8.0). The enzymes AChE (518 U/mg) and BChE (7–16 U/mg) were diluted in a 0.1 M phosphate buffer to achieve concentrations of 0.03 U/mL and 0.01 U/mL, respectively. Preparations of ATchI (0.5 mM), DTNB (0.2273 mM), and BTchI (0.5 mM) were made in distilled water and stored at a low temperature of 8 °C. […] The solution was heated to 30 °C for 15 min, followed by the gradual addition of the substrate. Absorbance of the heated sample at 412 nm was measured using a double beam spectrophotometer. […] The percentage activity (A) and inhibition of the enzyme were determined by applying the rate of absorption as a function of time (V=ΔAbs/Δt) using the following equation (Equation (2)).(2) %Inhibition=V/Vmax×100 Where V = enzyme inhibition activity of products and Vmax = enzyme activity without test of product.

[2] = target: T2, butyryl cholinesterase (BChE) (Equus caballus, UniProt P81908); experiment: Anticholinesterase assay (Elman's test), BChE; type: biochemical; conditions: for inhibition at 62.5 µg/mL / inhibition at 125 µg/mL / inhibition at 250 µg/mL / inhibition at 500 µg/mL / inhibition at 1000 µg/mL: read-out: BChE Percent inhibition
T2 construct: The AChE was derived from the electric eel, while BChE was obtained from equineserum; from tissue; host or cells: equine serum
Method: as §2

E. coli = experiment: Antibacterial agar well diffusion; type: cell-based, Escherichia coli (ATCC25922); conditions: Escherichia coli, 24 h, 6.25 mg/mL per well, 37 °C
Source text: as §1

[3] = DPPH free radical scavenging assay; type: biochemical
Method: (§3) In accordance with the procedure described in the literature, the ABTS activity assay was applied to evaluate the free radical scavenging capabilities of the synthesized compounds (1–6). ABTS solution was prepared by mixing 7 mM ABTS and 2.45 mM potassium persulfate and was then placed for 16 h under dark at room temperature. A methanol dilution was performed on the solution to achieve an absorbance of 0.706 ± 0.001 at 734 nm before starting the assay. To quantify the assay, 3 mL of the ABTS solution has been added to different concentrations (ranging from 62.5 to 1000 μg/mL) of every compound (300 μL) that were dissolved in methanol. Then after 1 min of incubation, the absorbance was continuously measured for 5 min. To confirm precision, all experiments were conducted in triplicate. The antioxidant capacities of the compounds were assessed with gallic acid as a reference, and the ability to remove free radicals was calculated as a percentage for each compound employing Equation.1 as presented below. Additionally, the DPPH free radical scavenging method was employed to assess the antioxidant activity of compounds (1–6), in accordance with a widely recognized procedure documented in existing literature. Concentrations ranging from 62.5 to 1000 μg/mL of compounds (1–6), dissolved in methanol, were introduced into a 2 mL solution of DPPH (0.002 % in methanol). The resulting solutions were kept in the dark at room temperature for a duration of 30 min. The amount of light absorbed by the solutions was then determined using a UV/vis spectrophotometer at a wavelength of 517 nm. The investigations were performed three times, using the exact protocol described for the ABTS scavenging assay. Afterwards, the antioxidant capabilities of each molecule were assessed using calculation.(1) Scavengingactivity(%)=A−B/A×100
(§4) Where, A = absorbance of ABTS/DPPH and B = absorbance of solution containing ABTS/DPPH and test samples.

[4] = ABTS free radical scavenging assay; type: biochemical
Method: as §3, §4

S. flexenari = experiment: Antibacterial agar well diffusion; type: cell-based; conditions: 24 h, 6.25 mg/mL per well, 37 °C

T1 sequence (O42275 24-633): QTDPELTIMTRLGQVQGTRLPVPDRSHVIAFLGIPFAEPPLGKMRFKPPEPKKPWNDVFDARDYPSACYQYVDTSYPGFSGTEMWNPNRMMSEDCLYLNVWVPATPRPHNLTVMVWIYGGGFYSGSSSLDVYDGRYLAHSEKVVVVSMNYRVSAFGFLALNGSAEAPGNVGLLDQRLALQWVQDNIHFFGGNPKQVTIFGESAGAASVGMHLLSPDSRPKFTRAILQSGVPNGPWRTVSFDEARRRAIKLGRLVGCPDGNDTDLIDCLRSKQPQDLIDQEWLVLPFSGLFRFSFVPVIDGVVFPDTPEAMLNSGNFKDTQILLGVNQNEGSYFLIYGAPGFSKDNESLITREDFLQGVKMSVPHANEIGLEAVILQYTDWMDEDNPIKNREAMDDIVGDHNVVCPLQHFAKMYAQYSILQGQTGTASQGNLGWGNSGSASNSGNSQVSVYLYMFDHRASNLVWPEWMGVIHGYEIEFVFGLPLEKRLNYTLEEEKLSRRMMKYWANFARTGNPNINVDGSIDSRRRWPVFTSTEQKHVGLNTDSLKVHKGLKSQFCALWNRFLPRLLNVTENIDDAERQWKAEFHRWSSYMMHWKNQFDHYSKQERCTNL
T2 sequence (P81908 whole entry): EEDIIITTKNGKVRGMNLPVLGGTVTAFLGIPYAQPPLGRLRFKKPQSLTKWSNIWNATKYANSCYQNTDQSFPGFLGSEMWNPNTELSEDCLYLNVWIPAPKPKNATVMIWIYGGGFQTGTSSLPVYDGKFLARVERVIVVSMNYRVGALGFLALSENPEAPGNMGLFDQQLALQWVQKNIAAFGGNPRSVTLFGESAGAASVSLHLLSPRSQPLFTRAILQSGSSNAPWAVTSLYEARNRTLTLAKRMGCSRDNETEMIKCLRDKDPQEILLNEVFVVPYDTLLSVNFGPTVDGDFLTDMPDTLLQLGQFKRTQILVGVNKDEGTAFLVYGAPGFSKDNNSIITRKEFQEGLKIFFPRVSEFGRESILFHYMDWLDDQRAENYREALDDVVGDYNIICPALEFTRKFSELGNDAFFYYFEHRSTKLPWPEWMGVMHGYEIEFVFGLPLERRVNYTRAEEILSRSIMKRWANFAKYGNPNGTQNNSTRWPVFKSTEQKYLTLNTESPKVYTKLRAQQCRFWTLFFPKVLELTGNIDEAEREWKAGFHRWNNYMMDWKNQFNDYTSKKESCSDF

| Structure (SMILES) | zone of inhibition at 6250 µg/mL (S. typhi) [mm] | zone of inhibition at 6250 µg/mL (P. aeruginosa) [mm] | IC50 [1] [µM] | inhibition at 62.5 µg/mL [1] [%] | inhibition at 125 µg/mL [1] [%] | inhibition at 250 µg/mL [1] [%] | inhibition at 500 µg/mL [1] [%] | inhibition at 1000 µg/mL [1] [%] | inhibition at 62.5 µg/mL [2] [%] | DPPH IC50 [3] [µg/mL] | DPPH %inhibition ([3]; 62.5 μg/mL) [%] | DPPH %inhibition ([3]; 125 μg/mL) [%] | DPPH %inhibition ([3]; 250 μg/mL) [%] | DPPH %inhibition ([3]; 500 μg/mL) [%] | DPPH %inhibition ([3]; 1000 μg/mL) [%] | ABTS IC50 [4] [µg/mL] | ABTS %inhibition ([4]; 62.5 μg/mL) [%] | ABTS %inhibition ([4]; 250 μg/mL) [%] | ABTS %inhibition ([4]; 500 μg/mL) [%] | ABTS %inhibition ([4]; 1000 μg/mL) [%] | also measured |
| --- | --- | --- | --- | --- | --- | --- | --- | --- | --- | --- | --- | --- | --- | --- | --- | --- | --- | --- | --- | --- | --- |
| Cc1cccnc1NC(=S)Nc1ccccc1 [Compound 5, 1-(3-methylpyridin-2-yl)-3-phenylthiourea] | 11.5 | 9.5 | 1410 | 38.7 ± 0.68 | 44.7 ± 1.25 | 48 ± 0.75 | 56.3 ± 1.06 | 63.3 ± 0.98 | 31.9 ± 0.48 | 37.50 | 62.44 ± 0.58 | 67.56 ± 1.73 | 74.31 ± 2.15 | 81.65 ± 1.34 | 88.58 ± 1.12 | 44.60 | 67.80 ± 1.50 | 77.42 ± 0.43 | 85.23 ± 1.83 | 92.76 ± 0.71 | inhibition at 125 µg/mL [2]: 39 ± 0.48%; inhibition at 250 µg/mL [2]: 47.9 ± 0.96%; inhibition at 500 µg/mL [2]: 61.6 ± 1.34%; inhibition at 1000 µg/mL [2]: 69.6 ± 1.12%; zone of inhibition at 6250 µg/mL (E. coli): 10.5 mm; ABTS %inhibition ([4]; 125 μg/mL): 72.56 ± 1.06%; zone of inhibition at 6250 µg/mL (S. flexenari): 10.5 mm |
| S=C(Nc1ccc(Cl)cc1)NC1CCCCC1 [Compound 4, 1-(4-chlorophenyl)-3-cyclohexylthiourea] | 11.5 | 10 | 928 | 31.9 ± 0.48 | 39 ± 0.48 | 47.9 ± 0.96 | 61.6 ± 1.34 | 69.6 ± 1.12 | 33 ± 1.15 | 67.11 | 48.18 ± 2.31 | 54.67 ± 2.08 | 63.74 ± 0.81 | 72.29 ± 0.27 | 82.11 ± 1.20 | 67.01 | 48.19 ± 1.26 | 61.14 ± 1.43 | 71.03 ± 1.61 | 81.23 ± 1.01 | IC50 [2]: 814 µM; inhibition at 125 µg/mL [2]: 42.7 ± 0.89%; inhibition at 250 µg/mL [2]: 49 ± 0.58%; inhibition at 500 µg/mL [2]: 63.03 ± 0.23%; inhibition at 1000 µg/mL [2]: 71.33 ± 0.49%; zone of inhibition at 6250 µg/mL (E. coli): 12 mm; zone of inhibition at 6250 µg/mL (S. flexenari): 13 mm |
| Cc1ccc(NC(=S)NC2CCCCC2)c(C)c1 [Compound 3, 1-cyclohexyl-3-(2,4-dimethylphenyl) thiourea] | 8.5 | 13.5 | 548 | 43.7 ± 0.66 | 49.7 ± 0.35 | 53.1 ± 0.62 | 59.01 ± 0.42 | 65.5 ± 2.26 | 44.29 ± 0.43 | 118.05 | 46.72 ± 2.13 | 51.88 ± 1.29 | 62.53 ± 1.11 | 71.19 ± 1.27 | 80.38 ± 1.10 | 115.07 | 46.06 ± 1.86 | 62.14 ± 1.30 | 71.16 ± 2.10 | 80.11 ± 1.01 | IC50 [2]: 468 µM; inhibition at 125 µg/mL [2]: 50.23 ± 0.44%; inhibition at 250 µg/mL [2]: 55.8 ± 1.07%; inhibition at 500 µg/mL [2]: 61.87 ± 0.39%; inhibition at 1000 µg/mL [2]: 67.44 ± 0.09%; zone of inhibition at 6250 µg/mL (E. coli): 11 mm; zone of inhibition at 6250 µg/mL (S. flexenari): 10 mm |
| O=C(O)c1cc(O)c(O)c(O)c1 [Gallic acid, gallic acid, reference compound] | – | – | – | – | – | – | – | – | – | 27.06 | 57.54 ± 0.46 | 63.83 ± 1.07 | 69.47 ± 0.46 | 75.45 ± 0.45 | 81.45 ± 0.65 | 39.54 | 51.68 ± 0.22 | 66.43 ± 0.29 | 71.88 ± 0.20 | 75.89 ± 0.20 | ABTS %inhibition ([4]; 125 μg/mL): 59.84 ± 0.32% |
